According to patent publication US3987055A, “Azasteroids compounds and derivatives” (The Board of Regents for the Oklahoma Agricultural & …, priority 1974, dated 1976):
Several values for one entry are separate records, joined by “and”; a condition that tells them apart may be missing. Equal entries are not always repeated. Entries after “also recorded” stand apart in the source; their conditions may differ. Numbered stars: 1 amine (or outer) side, 2 acyl side, 3 side chain; on linkers, the order of the positions; unused ones are H or OH. Bridge positions count the residues as written; N and C are the ends. Square brackets hold non-standard residues; d marks the D form. Peptide text beside a SMILES is read from it. I, II: the chains in the order shown. Actinocin(9to1) = Cc1c2oc3c(C)ccc(C(=O)[*:1])c3nc-2c(C(=O)[*:2])c(N)c1=O; NMeV = CN[C@H](C(=O)O)C(C)C; Sar = CNCC(=O)O

Tests used:
[1] = tested on: Bacillus subtilis W23; test: inhibition of growth of Bacillus subtilis W23 in growth medium; assay type: cell-based
Protocol: (§1) The hydroxybenzindazole (compound 2) delayed (inhibited) the initiation of growth of selected unrelated bacteria when incorporated in the growth medium. The inhibition was dependent on the concentration of the test compound and the nature of the organism. […] Pseudomonas fluorescens NND was not sensitive to the hydroxybenzindazole in the concentrations tested.
The influence of cell mass on the antimicrobial potential of the hydroxybenzindazole was determined using B. subtilis W23. […] Thus, a critical number of molecules must react with the cell to produce inhibition. Experiments were conducted to determine if Mg^+^+, which is an important component of cell membranes, affected the inhibition. Cells of B. subtilis W23 were exposed to 10^-^3 M MgCl2 simultaneously with the test compound or for as long as 15 minutes prior to addition of the hydroxybenzindazole.

[2] = tested on: Escherichia coli B; test: inhibition of initiation of growth of Escherichia coli B; assay type: cell-based; settings: E. coli B
From the text: as §1

[3] = tested on: Pseudomonas fluorescens NND; test: inhibition of growth of Pseudomonas fluorescens NND; assay type: cell-based; settings: concentrations tested; P. fluorescens NND; listed as hydroxybenzindazole
From the text: as §1

[4] = tested on: P. fluorescens NND; test: lysis of cells of P. fluorescens NND; assay type: cell-based, Pseudomonas fluorescens NND
Protocol: The increased lytic rate was not observed when the benzindazole was added after the cells had reached the maximum stationary phase (10 hours); thus, the compounds must be present during active growth for the cells to show the lytic response. […] This is extremely important in controlling or destroying growth of undesirable cells since if the cells rupture they cannot possibly grow and divide at any future time.

[5] = tested on: B. subtilis W23; test: antimicrobial activity in combination with selected antibiotics; assay type: cell-based
Protocol: Several antibiotics act at the cell surface. The antimicrobial activity of the hydroxybenzindazole in combination with selected antibiotics was measured.
Both Polymyxin (Pfizer, Inc.) and Circulin (Upjohn Co.) are surface active compounds thought to cause disorganization of the cell membrane leading to a loss of intracellular components. The enhanced antimicrobial activity observed with the combination of hydroxybenzindazole and antibiotics denotes a more pronounced distortion in the cell surface. Thus, much lower concentrations of the compounds can be used in medicinal applications providing an opportunity for toxic compounds to have greater medicinal applicability and use.
Failure of the mixture of hydroxybenzindazole and chloramphenicol to show an enhanced inhibition of growth could be correlated with the internal site of action of chloramphenicol, which is blockage of the binding of the 30s and 50s ribosomal subunits.

[6] = tested on: cells; test: binding or adsorption to the cell; settings: incubated with 20 μg
From the text: (§2) Thus the compound can be used to destroy undesirable cells without damaging normal cells.

[7] = tested on: cells; test: uptake or incorporation of L-serine-3-14C or uracil-2-14C; assay type: cell-based; settings: 60 μg/ml
From the text: as §2

[8] = tested on: osmoplasts (osmotically sensitive cells) of B. subtilis W23; test: lysis of osmoplasts of B. subtilis W23; assay type: cell-based; settings: stabilized in 0.35 M sucrose
From the text: as §2

[9] = effects on testis function: body, testis and seminal vesicle weight; assay type: in vivo, mice (ICR-Swiss adult male); settings: average; 0.2 mg per day s.c., 10 days
Protocol: The compounds as shown in Table 7 were dissolved in a minimal amount of ethanol and diluted in sesame oil (1 mg/ml). After dilution, samples were stored at 5° C in the dark and flushed with N2 every 24 hours. The compounds were injected subcutaneously into adult male mice for a period of 10 days. Each mouse injected received a total dose of 2 mg over the 10 day period or 0.2 mg per day. The mice were random bred males of the ICR-Swiss strain and were used in the study when they reached 75±2 days of age. Mice were maintained in air-conditioned and light-controlled (14 hour light/24 hour) animal quarters and provided with lab food and water ad libitum. Animals were necropsied 24 hours after the last injection. Testes and seminal vesicles were excised, trimmed of adhering tissue and weighed fresh at the nearest one-tenth milligram.

[10] = tested on: rat testis tubules; test: glucose oxidation (glucose-U-14C) by rat testis tubules in vitro; assay type: cell-based
Protocol: (§3) For these investigations the compounds were diluted in a minimal amount of ethanol and further diluted in saline (0.85%) so that the final concentration was 1 mg/ml. The compounds were placed in solution and gassed under N2 and stored at 5° C until used 2 days later for the in vitro incubation studies. Details of the in vitro incubation procedures may be found in Endocrinology 89:791-800 (1971).
The effects of these compounds on glucose oxidation by testis tubules was examined by incubating about 200 mg of teased testis tubules from mature rats in a 25 ml Erlenmeyer flask containing 3 ml of Krebs Ringer bicarbonate buffer (pH 7.4), D-glucose-U-^14 C (0.5 μCi; 10mM) and 0.25 ml of the azasteroid (1 mg/ml) to be tested. The flasks were incubated for 2 hours at 33° C under 95% O2 :5% CO2. The reaction was terminated by adding 0.25 ml of 5 N H2 SO4. Carbon dioxide was trapped in 0.25 ml of hydroxide of Hyamine. The radioactivity present in the Hyamine was determined by liquid scintillation spectrometry. This table includes a detailed summary of the results obtained and an average for each compound. […] Thus, the compounds have potential for antifertility activity in the control of wild rodent populations and possibly stray animals such as dogs and cats.
CPM = counts per minute. Glucose-U-^14 C activity was 0.5 millicurie.
All compounds were tested in a concentration of 250 mg per flask.

[11] = tested on: rat testis tubules; test: lysine-U-14C incorporation into protein by rat testis tubules in vitro; assay type: cell-based
Protocol: as §3
The effects of the compounds on the incorporation of lysine -U-^14 C into trichloroacetic (TCA) precipitable protein of rat testes was investigated by incubating about 200 mg of teased testis tubules from mature rats in a 25 ml Erlenmeyer flask containing 3 ml of Krebs Ringer bicarbonate buffer (pH 7.4), L-lysine-U-^14 C (0.5 μCi; 0.1mM), glucose (10 mM) and 0.25 ml of the azasteroid to be tested. The flasks were incubated for 1 hour at 33° C under 95% O2 : 5% CO2 and the TCA precipitable protein was isolated and an aliquot used to measure radioactivity.
CPM = counts per minute. All compounds were tested in a concentration of […]

[12] = oral, rats; cited from earlier work
[13] = cited from earlier work
[14] = tested on: sarcoma 180 ascitis cells; test: antitumor activity, sarcoma 180 ascites in mice, survival; assay type: in vivo, mice (Swiss albino CD-1 female); settings: i.p., 5 injections
Protocol: The test system utilized involved Swiss albino CD-1 female mice weighing 25-27 grams which were injected (i.p.) with 1 × 10^6 viable sarcoma 180 ascitis cells. Chemotherapy was initiated 24 hours post-injection with a protocol of five intra-peritonaeal injections at 24 hour intervals.
Animals were weighted at 24 hour intervals and the survival time recorded for each test group.

[15] = tested on: Bacillus subtilis; settings: as low as; cited from earlier work
[16] = cited from earlier work; remark: listed apart in the source
[17] = individual flask, 250 mg per flask (so in the source), 2 hours, 33° C
[18] = individual flask, 250 mg per flask (so in the source), 1 hour, 33° C

## Oc1ccc2c(c1)CCc1cn[nH]c1-2 [Compound 2, 4,5-Dihydro-1H-benz[g]indazol-7-ol]
[1]; 46 μg/ml, B. subtilis W23
  growth inhibition at lower concentration: only slight inhibition
[1]; 86 μg/ml, B. subtilis W23
  increased lag in the initiation of growth: approximately 3 hours
[1]; 10^-3 M MgCl2, simultaneously or up to 15 minutes prior
  influence of Mg++ on the inhibition: did not influence the inhibition
[1]; B. subtilis W23, increasing inoculum cell mass
  influence of cell mass on extent of inhibition: the extent of inhibition was diminished as the cell mass of the inoculum was increased
[2]; 46 μg/ml
  growth inhibition at lower concentration: only slight inhibition
[2]; 86 μg/ml
  increased lag in the initiation of growth: approximately 3 hours
[3]
  sensitivity / influence on growth: not sensitive; also recorded: did not influence the growth
[4]; P. fluorescens NND
  dependence of extent of lysis on concentration: proportional to the benzindazole concentration
[4]; added after 10 hours
  increased lytic rate when added after maximum stationary phase: not observed
[4]; cells grown in presence of compound
  cell population lysed: approximately 95%
[5]; alone, B. subtilis W23
  inhibition of growth, tested separately: very slight inhibition of growth
[5]; with chloramphenicol
  enhanced inhibition in combination with chloramphenicol: enhanced inhibition was not observed
[5]; with penicillin, B. subtilis W23
  inhibition of growth in combination with penicillin: pronounced inhibition
[6]
  amount bound or adsorbed to the cell: approximately 1 μg
[7]
  inhibition of uptake or incorporation of L-serine-3-14C or uracil-2-14C: did not inhibit uptake or incorporation
[8]
  lysis of osmoplasts: did not produce lysis
[9]
  Body Weight: 35.7 g
  Mg Testes Per g Body Wt.: 6.73 Mg per g
  Seminal Vesicle weight: 87.3 mg
  Testes Paired weight: 242.0 mg
[10]; average of flasks
  AVERAGE glucose oxidation: 3,756 CPM/100 mg TISSUE
[10]; in words
  depression of glucose oxidation in vitro: depressed glucose oxidation in vitro more than compounds 4 c and 11b
[10]; [17]
  GLUCOSE OXIDATION per 100 mg: 3,354 CPM/100 mg and 4,159 CPM/100 mg
  GLUCOSE OXIDATION per flask: 6,876 CPM/FLASK and 8,557 CPM/FLASK
[10]; versus saline, 120 min
  % DEVIATION FROM CONTROL, glucose oxidation: -63.6%
[11]; average of two flasks
  AVERAGE OF TWO FLASK lysine incorporation: 814 CPM/100 mg tissue
[11]; in words
  protein synthesis by teased testis tubules: depress protein synthesis
[11]; [18]
  lysine incorporation into protein per 100 mg: 1,000 CPM/100 mg and 629 CPM/100 mg
  lysine incorporation into protein per flask: 2,000 CPM/FLASK and 1,200 CPM/FLASK

## C[C@]12Cc3cn[nH]c3C[C@@H]1CC[C@@H]1[C@@H]2CC[C@@]2(C)[C@H]1CC[C@]2(C)O [17-Hydroxy-17 α-methylandrostano[3,2]-μ pyrazole]
[12]
  antiovulatory activity relative to norethisterone: one-fifth of that observed for norethisterone

## COc1ccc2c(c1)CC[C@@H]1[C@@H]2CC[C@]2(C)C(=O)NC[C@@H]12 [0-methyl ether of 16-azaestrone]
[13]
  estrogenic activity relative to parent estrone: less than 1.01%

## Oc1ccc2c3c(ccc2c1)-c1[nH]ncc1CC3 [Compound 11a, 10,11-Dihydro-3H-naphth[1,2-g]indazol-7-ol]
[14]; 0.8 μg/injection, total 4 μg
  Survival ratio T/C (survival time of test animal / control animal): 1.0

## CC(C)CCC[C@@H](C)[C@H]1CC[C@H]2[C@@H]3CC=C4N(CC[N+](C)(C)C)C(=O)CC[C@]4(C)[C@H]3CC[C@]12C [4-Dimethylaminoethyl-4-aza-5-cholesten-3-one methiodide]
[15]
  concentration that irreversibly inhibits growth of Bacillus subtilis cultures: 1 µg/mL

## Cc1c2oc3c(C)ccc(C(=O)N[C@@H]4C(=O)N[C@H](C(C)C)C(=O)N5CCC[C@H]5C(=O)N(C)CC(=O)N(C)[C@@H](C(C)C)C(=O)O[C@@H]4C)c3nc-2c(C(=O)N[C@@H]2C(=O)N[C@H](C(C)C)C(=O)N3CCC[C@H]3C(=O)N(C)CC(=O)N(C)[C@@H](C(C)C)C(=O)O[C@@H]2C)c(N)c1=O [Actinomycin D, reference compound] (I: T[dV]P[Sar][NMeV] / II: T[dV]P[Sar][NMeV]; ester I:1-I:C, II:1-II:C; linker I:N-II:N via Actinocin(9to1))
[14]; 4 μg/injection, total 20 μg
  Survival ratio T/C (survival time of test animal / control animal): 1.9

## (3,2-c)-2'-phenylpyrazole of 9α-fluoro-6,16α-dimethyl-Δ^6 -hydrocortisone
[16]
  anti-inflammatory potency relative to hydrocortisone: over 2000 times
